Measured values: US20230382924A1, “MODULATORS OF CYSTIC FIBROSIS TRANSMEMBRANE CONDUCTANCE REGULATOR” (VERTEX PHARMACEUTICALS INCORPORATED, priority 2020, published 2023)
Read-outs that look alike come from different tables or passages of the source.

Target: CFTR (Homo sapiens, UniProt P13569)
Test: Membrane Potential Dye, Enteroid Assay A
Type: cell-based
Conditions: for EC50: read-out: Ent. A EC50
How it was run: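 Signal is reported as % Activity relative to a triple CFTR modulator control (3 μM + 3 μM + 300 nM acute). Read-out: membrane potential fluorescence (20 μM methyl oxonol) monitored for 15 min after chloride-free stimulation. Dye loading took 25 min at room temperature in Bath 1 buffer containing CaCC blockers.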

CFTR, sequence (P13569 with tags, fused parts or gaps DEL508-508): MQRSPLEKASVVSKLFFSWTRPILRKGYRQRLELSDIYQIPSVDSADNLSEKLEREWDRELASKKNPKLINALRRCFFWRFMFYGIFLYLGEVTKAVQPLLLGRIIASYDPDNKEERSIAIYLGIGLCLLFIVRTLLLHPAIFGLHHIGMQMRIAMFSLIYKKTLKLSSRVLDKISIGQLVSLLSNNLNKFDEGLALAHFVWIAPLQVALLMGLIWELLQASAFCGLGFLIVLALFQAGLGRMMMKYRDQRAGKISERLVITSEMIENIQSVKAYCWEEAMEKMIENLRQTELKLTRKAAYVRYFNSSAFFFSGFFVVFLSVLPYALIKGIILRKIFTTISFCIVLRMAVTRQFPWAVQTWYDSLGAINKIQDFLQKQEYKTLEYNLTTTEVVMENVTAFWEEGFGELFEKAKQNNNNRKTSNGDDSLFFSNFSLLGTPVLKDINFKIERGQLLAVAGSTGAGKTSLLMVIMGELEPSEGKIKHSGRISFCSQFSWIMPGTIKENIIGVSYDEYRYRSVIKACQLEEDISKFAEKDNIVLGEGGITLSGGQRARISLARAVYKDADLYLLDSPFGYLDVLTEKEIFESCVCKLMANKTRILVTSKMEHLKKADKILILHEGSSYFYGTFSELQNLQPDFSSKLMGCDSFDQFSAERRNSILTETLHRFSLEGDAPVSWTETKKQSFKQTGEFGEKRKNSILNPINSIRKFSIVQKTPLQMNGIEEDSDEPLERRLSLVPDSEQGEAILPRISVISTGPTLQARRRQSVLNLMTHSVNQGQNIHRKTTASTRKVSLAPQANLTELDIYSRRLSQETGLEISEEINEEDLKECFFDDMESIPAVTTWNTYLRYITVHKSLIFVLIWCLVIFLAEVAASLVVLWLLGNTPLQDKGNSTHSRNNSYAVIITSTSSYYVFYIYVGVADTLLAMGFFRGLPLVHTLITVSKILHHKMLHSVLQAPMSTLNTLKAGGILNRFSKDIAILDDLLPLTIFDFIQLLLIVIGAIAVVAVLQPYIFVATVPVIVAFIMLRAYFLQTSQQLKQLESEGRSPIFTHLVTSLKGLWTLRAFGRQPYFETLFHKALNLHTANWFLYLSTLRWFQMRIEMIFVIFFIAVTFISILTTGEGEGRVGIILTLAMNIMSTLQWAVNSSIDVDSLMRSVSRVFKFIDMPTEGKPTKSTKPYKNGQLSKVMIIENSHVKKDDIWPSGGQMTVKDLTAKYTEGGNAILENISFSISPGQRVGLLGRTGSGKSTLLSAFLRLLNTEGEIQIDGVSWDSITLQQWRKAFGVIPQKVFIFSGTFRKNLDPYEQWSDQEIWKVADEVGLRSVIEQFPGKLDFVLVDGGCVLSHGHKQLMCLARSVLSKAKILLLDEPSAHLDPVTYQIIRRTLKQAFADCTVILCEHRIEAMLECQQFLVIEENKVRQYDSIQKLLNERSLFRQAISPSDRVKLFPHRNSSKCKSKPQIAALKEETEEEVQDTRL

Row | SMILES | Ent. A Max Activity (Table 8) | EC50 (Table 8) [µM] | other results
1 | Cc1cccc(C)c1-c1cc2nc(n1)NS(=O)(=O)c1cccc(c1)C(=O)NCC(c1cnc(C(C)(C)C)nc1)O2 (stereo not shown) [Compound 285] | + (+ is <30%) |  | 
2 | Cc1cccc(C)c1-c1cc2nc(n1)NS(=O)(=O)c1cccc(c1)CN[C@H](CC1CCCCC1)CO2 [Compound 286] | + (+ is <30%) | 3 to 30 | 
3 | Cc1cccc(C)c1-c1cc2nc(n1)NS(=O)(=O)c1cccc(c1)C(=O)N[C@@H](CC1(C(F)(F)F)CC1)CO2 [Compound 288] | +++ (+++ is >60%) | < 1 | 
4 | Cc1cccc(C)c1-c1cc2nc(n1)NS(=O)(=O)c1cccc(c1)C(=O)N[C@@H](c1ccccc1)CCO2 [Compound 290] |  | 1 to 3 | 
5 | Cc1cccc(C)c1-c1cc2cc(n1)NS(=O)(=O)c1cccc(c1)C(=O)N[C@H](CC(C)C)CO2 [Compound 296] | +++ (+++ is >60%) | < 1 | 
6 | Cc1cccc(C)c1-c1cc2nc(n1)NS(=O)(=O)c1cccc(c1)C(=O)NCC(C#CC(C)(C)C)O2 (stereo not shown) [Compound 297] |  |  | Ent. A Max Activity (Table 9): ++ (++ is 30-60%); EC50 (Table 9): < 1 µM
7 | CC(C)C[C@@H]1COc2cc(C3C(C)CCCC3C)nc(n2)NS(=O)(=O)c2cccc(c2)C(=O)N1 (stereo partly shown) [Compound 300] |  | < 1 | 
8 | CC(C)C[C@@H]1COc2cc(C3C(C)CCCC3C)nc(n2)NS(=O)(=O)c2cccc(c2)C(=O)N1 (stereo partly shown) [Compound 301] |  | 3 to 30 | 
9 | COc1ccc(C)c(-c2cc3nc(n2)NS(=O)(=O)c2cccc(c2)C(=O)N[C@H](CC(C)C)CO3)c1 [Compound 302] | +++ (+++ is >60%) | 1 to 3 | 
10 | COc1cccc(C)c1-c1cc2nc(n1)NS(=O)(=O)c1cccc(c1)C(=O)N[C@H](CC1CCCCC1)CO2 [Compound 303] | + (+ is <30%) | < 1 | 
11 | COc1cccc(C)c1-c1cc2nc(n1)NS(=O)(=O)c1cccc(c1)C(=O)N[C@H](CC(C)(C)C)CO2 [Compound 304] | +++ (+++ is >60%) | 1 to 3 | 
12 | CC(C)C[C@@H]1COc2cc(-n3ccc(OCCC4(C(F)(F)F)CC4)n3)nc(n2)NS(=O)(=O)c2cccc(c2)C(=O)N1 [Compound 306] | + (+ is <30%) |  | 
13 | CC(C)C[C@@H]1COc2cc(C3=CC(C)CC3(C)C)nc(n2)NS(=O)(=O)c2cccc(c2)C(=O)N1 (stereo partly shown) [Compound 320] |  |  | Ent. A Max Activity (Enteroid Assay A): ++ (++ is 30-60%); EC50 (Enteroid Assay A): < 1 µM
14 | CC(C)C[C@@H]1COc2cc(C3=CCCC3)nc(n2)NS(=O)(=O)c2cccc(c2)C(=O)N1 [Compound 321] |  |  | EC50 (Enteroid Assay A): 3 to 30 µM
15 | CCC1CC=C(c2cc3nc(n2)NS(=O)(=O)c2cccc(c2)C(=O)N[C@H](CC(C)C)CO3)CC1 (stereo partly shown) [Compound 322] |  |  | Ent. A Max Activity (Enteroid Assay A): ++ (++ is 30-60%); EC50 (Enteroid Assay A): 1 to 3 µM
16 | CC(C)C[C@@H]1COc2cc(C3=CCC(C)(C)CC3)nc(n2)NS(=O)(=O)c2cccc(c2)C(=O)N1 [Compound 323] |  |  | Ent. A Max Activity (Enteroid Assay A): ++ (++ is 30-60%); EC50 (Enteroid Assay A): 1 to 3 µM
17 | CC(C)C[C@@H]1COc2cc(C3=CCC(C)CC3)nc(n2)NS(=O)(=O)c2cccc(c2)C(=O)N1 (stereo partly shown) [Compound 324] |  |  | Ent. A Max Activity (Enteroid Assay A): ++ (++ is 30-60%); EC50 (Enteroid Assay A): 1 to 3 µM
18 | CC(C)C[C@@H]1COc2cc(C3=CCCCC3)nc(n2)NS(=O)(=O)c2cccc(c2)C(=O)N1 [Compound 327] |  |  | Ent. A Max Activity (Enteroid Assay A): ++ (++ is 30-60%); EC50 (Enteroid Assay A): 1 to 3 µM
19 | CCOc1ccccc1-c1cc2nc(n1)NS(=O)(=O)c1cccc(c1)C(=O)N[C@H](CC(C)C)CO2 [Compound 328] |  |  | Ent. A Max Activity (Enteroid Assay A): ++ (++ is 30-60%); EC50 (Enteroid Assay A): 1 to 3 µM

Further lines, with some results ahead:

Row | Ent. A Max Activity (Table 8) | EC50 (Table 8) [µM] | SMILES | other results
20 | + (+ is <30%) |  | CC(C)C[C@@H]1COc2cc(-n3nccc3C(C)C)nc(n2)NS(=O)(=O)c2cccc(c2)C(=O)N1 [Compound 307] | 
21 | + (+ is <30%) |  | CC(C)C[C@@H]1COc2cc(-n3ccc(C(F)(F)F)n3)nc(n2)NS(=O)(=O)c2cccc(c2)C(=O)N1 [Compound 308] | 
22 | + (+ is <30%) |  | CC(C)C[C@@H]1COc2cc(N3C(C)CCC3C)nc(n2)NS(=O)(=O)c2cccc(c2)C(=O)N1 (stereo partly shown) [Compound 309] | 
23 |  | < 1 | CCC1CCC(c2cc3nc(n2)NS(=O)(=O)c2cccc(c2)C(=O)N[C@H](CC(C)C)CO3)CC1 (stereo partly shown) [Compound 310] | 
24 |  | < 1 | CC(C)C[C@@H]1COc2cc(C3CC4CCC3(C)C4(C)C)nc(n2)NS(=O)(=O)c2cccc(c2)C(=O)N1 (stereo partly shown) [Compound 311] | 
25 |  | 3 to 30 | CC(C)C[C@@H]1COc2cc(C3CCCCO3)nc(n2)NS(=O)(=O)c2cccc(c2)C(=O)N1 (stereo partly shown) [Compound 313] | 
26 | + (+ is <30%) | 3 to 30 | CC(C)C[C@@H]1COc2cc(C3CCOCC3)nc(n2)NS(=O)(=O)c2cccc(c2)C(=O)N1 [Compound 314] | 
